According to the supplement of paper PMC10702517:
± gives the standard deviation.

Tests used:
[1] = chemical recovery from spiked human plasma; higher = better extraction; details: pooled human plasma
[2] = chemical recovery into PDMS from spiked human plasma; higher = better extraction; details: pooled human plasma, extraction method: PES with PDMS
[3] = chemical recovery by SPE of plasma after PDMS sampling; higher = better extraction; details: pooled human plasma, extraction method: HLB SPE of plasma after PES
[4] = extraction method: SPE only (HLB 96-well), PES comparison experiment
[5] = extraction method: PES+SPE (3 d PDMS equilibration then HLB SPE)
[6] = extraction method: solvent precipitation (ACN + hexane)
[7] = extraction method: SPE only (HLB 96-well)
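For chemical recovery by SPE of plasma after PDMS sampling in this document: over 400 spiked chemicals quantified by LC-HRMS or GC-HRMS via internal standard calibration, recovery relative to spike mix added to unspiked plasma extract to correct matrix effects.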

Row | Compound | chemical recovery [1, 4] [%] | chemical recovery into PDMS ([2]; equilibration time (d): 1) [%] | chemical recovery into PDMS ([2]; equilibration time (d): 3) [%] | chemical recovery into PDMS ([2]; equilibration time (d): 6) [%] | chemical recovery by SPE of plasma ([3]; equilibration time (d): 1) [%] | chemical recovery by SPE of plasma ([3]; equilibration time (d): 3) [%] | chemical recovery by SPE of plasma ([3]; equilibration time (d): 6) [%] | chemical recovery [1, 5] [%] | chemical recovery [1, 6] [%] | chemical recovery [1, 7] [%]
1 | C#C[C@]1(O)C=C[C@H]2[C@@H]3CCC4=CC(=O)CC[C@@H]4[C@H]3CC[C@@]21CC [Gestoden] | 47 ± 7.4 | 34.1 ± 1.7 | 43 ± 2.3 | 40.9 ± 4.1 | 22.4 ± 3 | 17.6 ± 1 | 11.7 ± 1.3 | – | – | –
2 | COCN(COC)c1nc(N(COC)COC)nc(N(COC)COC)n1 [Hexa(methoxymethyl)melamine] | 7.63 ± 2.7 | 39.4 ± 2.9 | 45.8 ± 2.6 | 41.9 ± 5.7 | 7.64 ± 6.8 | 3.37 ± 3 | 0.745 ± 1 | 38.3 ± 8.8 | 72.5 ± 2.8 | –
3 | CN(C)c1nc(=O)n(C2CCCCC2)c(=O)n1C [Hexazinone] | 48.5 ± 4.3 | 36.1 ± 1.9 | 42.2 ± 4.5 | 44.5 ± 2.9 | 38.9 ± 6.6 | – | 22.5 ± 4.4 | 51.5 ± 4.8 | – | 45.4 ± 3.4
4 | CCC(C)OC(=O)N1CCCCC1CCO (stereo not drawn) [Icaridin] | 43.2 ± 8.4 | 27.3 ± 1.6 | 31.3 ± 3.8 | 35.5 ± 13 | 2.46 ± 0.24 | 2.67 ± 0.36 | 1.58 ± 0.1 | – | – | 45 ± 5.5
5 | O=P1(NCCCl)OCCCN1CCCl (stereo not drawn) [Ifosfamide] | 55.9 ± 6.7 | 3.64 ± 0.32 | 6.16 ± 1.5 | 6.9 ± 1.5 | 54.9 ± 6.7 | 56.1 ± 4.8 | 47.3 ± 4.7 | 46.6 ± 3.5 | 71.7 ± 1.5 | 39.4 ± 3.3
6 | C=CCOC(Cn1ccnc1)c1ccc(Cl)cc1Cl (stereo not drawn) [Imazalil] | 47.6 ± 5.3 | 20 ± 0.37 | 20.6 ± 1 | 20.7 ± 1.6 | 0.376 ± 0.081 | 0.334 ± 0.2 | 0.104 ± 0.0059 | 21.3 ± 3.4 | 75 ± 4.8 | 42.1 ± 3
7 | CC(C)C1(C)N=C(c2ncccc2C(=O)O)NC1=O (stereo not drawn) [Imazapyr] | 52.5 ± 4 | – | – | 0.0849 ± 0.048 | 49.5 ± 5.4 | 53.1 ± 3.2 | 49.2 ± 2.4 | 44.4 ± 2.9 | 67.7 ± 5.8 | 44.7 ± 9.6
8 | O=C1NCCN1Cc1ccc(Cl)nc1 [Imidacloprid-urea] | 51.1 ± 4.4 | 6.18 ± 0.38 | 10.2 ± 1.7 | 11.7 ± 2 | 50.1 ± 6.5 | 50.2 ± 4.6 | 39.3 ± 1.7 | 51.2 ± 4.7 | 77.1 ± 3.8 | 43.2 ± 9.1
9 | O=[N+]([O-])/N=C1\NCCN1Cc1ccc(Cl)nc1 [Imidacloprid] | 53.3 ± 7.2 | 3.82 ± 0.41 | 6.8 ± 1.8 | 7.69 ± 1.4 | 49 ± 6.3 | 50.2 ± 4.6 | 43.2 ± 2.7 | 47.6 ± 4 | 77.5 ± 3.8 | 39.9 ± 8
10 | C1=Cc2ccccc2Nc2ccccc21 [Iminostilbene] | 28.4 ± 4.4 | 2.55 ± 1.2 | 2.02 ± 2.1 | 1.36 ± 0.63 | 3.69 ± 2.4 | 4 ± 1.1 | 2.5 ± 1.3 | 10.8 ± 4.1 | 73.2 ± 4.5 | 44.1 ± 7
11 | CSc1nc(NC2CC2)nc(NC(C)(C)C)n1 [Irgarol] | 44.2 ± 6.4 | 19.6 ± 7 | 19.3 ± 6.5 | 20.9 ± 3.9 | 0.863 ± 0.085 | 0.842 ± 0.15 | 0.421 ± 0.023 | – | 81.5 ± 4.4 | 55.7 ± 4
12 | CC1(C)CC(N)CC(C)(CN)C1 (stereo not drawn) [Isophorone diamine] | 4.27 ± 3.6 | 0.00705 ± 0.025 | 0.0508 ± 0.069 | – | – | – | 1.22 ± 0.75 | – | – | –
